Laboratory results: patent US5744452A, “γ-L-glutamyl containing immunomodulator compounds and methods therewith” (Wei; Edward T., priority 1995, dated 1998)

Key:
murine thymocytes = test: Murine thymocyte differentiation after intraperitoneal injection; assay type: in vivo, CBA mice; conditions: for Percent of thymocytes expressing L3T4 / Percent of thymocytes expressing Lyt2 / Percent of thymocytes expressing Thy-1: 24 hours
Experimental: Bestim was injected into 3-month old CBA mice at doses ranging from 10 ng/kg to 100 μg/kg intraperitoneally. Mice were killed by cervical dislocation 24 hours after injection, the thymus gland removed, and the cells isolated by centrifugation and washed in RPMI-1640 medium. Expression of surface differentiation antigens were measured using monoclonal antibodies to L3T4 (T-helper marker), Lyt 2 (T-cytotoxic marker) and Thy-1 (common T-lymphocyte marker) molecules in a cytotoxicity assay using complement-dependent cell lysis (Terasaki et al., 1972). Dead cells were counted microscopically after eosin staining.

mice = test: Acute toxicity, single intramuscular dose, mice; assay type: in vivo
Experimental: (§1) To illustrate this point and in preparation for clinical studies, acute and sub-acute toxicity studies were conducted in animals with Bestim according to conditions of good-laboratory practices. Bestim, prepared as a sterile lyophitized powder in ampoules, was dissolved in sterile 0.9% NaCl solution and injected intramuscularly in all experiments.
(§2) Acute toxicity: Rodents (mice and rats) and dogs were randomized into groups of equal numbers of males and females. Animals were inspected daily for 14 days after a single dose of Bestim (intramuscular):
(§3) Body weight, overall appearance and behavior were evaluated each day and, at the end of two weeks, macroscopic and histopathological examinations of the internal organs (heart, lungs, pleural and peritoneal cavities, muscles, stomach, small and large intestine, liver, spleen, pancreas, kidneys, bladder, thyroid, brain, skin and testes/ovaries) of all animals were conducted.

rats [1] = test: Acute toxicity, single intramuscular dose, rats; assay type: in vivo; conditions: single 500.0 mg/kg intramuscular, 14 days
Experimental: as §1, §2, §3

dogs = test: Acute toxicity, single intramuscular dose, dogs; assay type: in vivo; conditions: single 500.0 mg/kg intramuscular, 14 days
Experimental: as §1, §2, §3

rats [2] = test: Subacute toxicity, repeated intramuscular injection, rats; assay type: in vivo
Experimental: as §1
Subacute Toxicity Studies: In a second set of experiments, Bestim was administered for longer durations, accordingly:
rats: 1 mg/kg and 100 mg/kg, administered intramuscularly daily for 3 months and for 6 months

[3] = system: patients with generalized surgical infection; test: Study in patients with generalized surgical infection; assay type: in vivo, human; conditions: for Adhesion (%) / Blast transformation PHA / Blast transformation spont / CD3 (%) / CD4 (%) / CD4/CD8 / CD8 (%) / CD16 (%) / CD72 (%) / Chemilumin luminol (induced) / Chemilumin luminol (spontaneous) / IL-1 production LPS induced / IL-1 production spontaneous / IgA / IgG / IgM / NBT test induced / NBT test spontaneous / TNF production spontaneous / TNF prpoduction LPS induced: surgical infection; for Alanine aminotransferase / Albumin / Asparagine aminotransferase / Band neutrophils (%) / Bilirubin / Creatinin / Hemoglobin / Mature neutrophils (%) / Monocytes (%) / Plasma protein / Urea: surgical patients
Experimental: Preliminary studies were conducted to characterize the immunomodulatory properties of Bestim in human subjects. The protocol for the human subjects studies were reviewed and approved by a Hospital Committee (Moscow Hospital N-24) and informed consent was obtained from all subjects. All 62 patients received by intramuscular injection 0.1 mg of Bestim dissolved in 1.5 to 2.0 ml of sterile saline, one injection per day for 5 days. Patients participating in the clinical trials were from 2 groups:
The second group consisted of 28 patients with generalized surgical infection. Bestim was given together with standard antibiotic therapy.
Laboratory measurements (data in Table 8 to 10) were performed one day before and compared to values obtained three days after injection of Bestim.

[4] = system: patient with colon cancer; test: Case History 1: immunodeficiency after cancer chemotherapy (Patient A); assay type: in vivo, human
Experimental: Patient A was admitted with the diagnosis of colon cancer. Laboratory confirmed immunodeficiency which appeared as a complication of the main illness. Bestim preparation was applied by 5 daily intramuscular injections of 0.1 mg.

[5] = mice, single 5000.0 mg/kg intramuscular, 14 days
[6] = Bestim combined with conventional methods

Compound: N[C@@H](CCC(=O)N[C@@H](Cc1c[nH]c2ccccc12)C(=O)O)C(=O)O [Bestim, γ-L-glutamyl-L-tryptophan]
- Percent of thymocytes expressing L3T4 (murine thymocytes; 0.01 μg/kg i.p.): 40 ± 8%
- Percent of thymocytes expressing Lyt2 (murine thymocytes; 0.01 μg/kg i.p.): 45 ± 5%
- Percent of thymocytes expressing Thy-1 (murine thymocytes; 0.01 μg/kg i.p.): 95 ± 3%
- Percent of thymocytes expressing L3T4 (murine thymocytes; 0.1 μg/kg i.p.): 55 ± 1%
- Percent of thymocytes expressing Lyt2 (murine thymocytes; 0.1 μg/kg i.p.): 44 ± 2%
- Percent of thymocytes expressing Thy-1 (murine thymocytes; 0.1 μg/kg i.p.): 89 ± 2%
- Percent of thymocytes expressing L3T4 (murine thymocytes; 1 μg/kg i.p.): 54 ± 1%
- Percent of thymocytes expressing Lyt2 (murine thymocytes; 1 μg/kg i.p.): 46 ± 1%
- Percent of thymocytes expressing Thy-1 (murine thymocytes; 1 μg/kg i.p.): 91 ± 1%
- Percent of thymocytes expressing L3T4 (murine thymocytes; 10 μg/kg i.p.): 64 ± 1%
- Percent of thymocytes expressing Lyt2 (murine thymocytes; 10 μg/kg i.p.): 47 ± 2%
- Percent of thymocytes expressing Thy-1 (murine thymocytes; 10 μg/kg i.p.): 90 ± 1%
- Percent of thymocytes expressing L3T4 (murine thymocytes; 100 μg/kg i.p.): 70 ± 1%
- Percent of thymocytes expressing Lyt2 (murine thymocytes; 100 μg/kg i.p.): 48 ± 1%
- Percent of thymocytes expressing Thy-1 (murine thymocytes; 100 μg/kg i.p.): 91 ± 0%
- T-lymphocyte subset induced to differentiate in murine thymus (murine thymocytes; conclusion from Table 3): preferentially induces differentiation of a subset of T-helper lymphocytes
- deaths (mice; [5]): No deaths were observed
- general appearance, behavior, body weight, hematological, biochemical and physiological indices, macroscopic and histopathological examination of internal organs (mice; [5]): all within normal limits
- tested dose relative to expected doses for therapeutic trials (mice; single administration): ~5,000,000 fold
- deaths (rats [1]): No deaths were observed
- general appearance, behavior, body weight, hematological, biochemical and physiological indices, macroscopic and histopathological examination of internal organs (rats [1]): all within normal limits
- deaths (dogs): No deaths were observed
- general appearance, behavior, body weight, hematological, biochemical and physiological indices, macroscopic and histopathological examination of internal organs (dogs): all within normal limits
- morphological appearance of all organs, macroscopic and histological (rats [2]; rats, 1 and 100 mg/kg i.m. daily for 3 and 6 months): normal
- body weight (rats [2]; rats, both doses (1 and 100 mg/kg i.m. daily)): slight increase in body weight
- tested dose relative to expected doses for therapeutic trials (rats [2]; repeated administration): ~100 fold
- clinical improvement [3, 6]: more rapid clinical improvement
- duration of the patient's stay in the clinic [3, 6]: decreased the duration of the patient's stay in the clinic
- Adhesion (%) ([3]; Bestim After): 41 ± 3%
- Blast transformation PHA ([3]; Bestim After): 8935 ± 780
- Blast transformation spont ([3]; Bestim After): 541 ± 48
- CD3 (%) ([3]; Bestim After): 65 ± 5%
- CD4 (%) ([3]; Bestim After): 40 ± 3%
- CD4/CD8 ([3]; Bestim After): 1.92 ± 0.17
- CD8 (%) ([3]; Bestim After): 22 ± 2%
- CD16 (%) ([3]; Bestim After): 10.7 ± 2.1%
- CD72 (%) ([3]; Bestim After): 4.0 ± 0.5%
- Chemilumin luminol (induced) ([3]; Bestim After): 5063 ± 431
- Chemilumin luminol (spontaneous) ([3]; Bestim After): 1427 ± 252
- IL-1 production LPS induced ([3]; Bestim After): 1601 ± 284
- IL-1 production spontaneous ([3]; Bestim After): 588 ± 201
- IgA ([3]; Bestim After): 2.2 ± 0.1 g/L
- IgG ([3]; Bestim After): 9.7 ± 0.9 g/L
- IgM ([3]; Bestim After): 1.2 ± 0.1 g/L
- NBT test induced ([3]; Bestim After): 144 ± 17
- NBT test spontaneous ([3]; Bestim After): 77 ± 11
- TNF production spontaneous ([3]; Bestim After): 286 ± 27
- TNF prpoduction LPS induced ([3]; Bestim After): 338 ± 81
- Adhesion (%) ([3]; Bestim Before): 32 ± 3%
- Blast transformation PHA ([3]; Bestim Before): 4563 ± 524
- Blast transformation spont ([3]; Bestim Before): 435 ± 53
- CD3 (%) ([3]; Bestim Before): 35 ± 5%
- CD4 (%) ([3]; Bestim Before): 25 ± 4%
- CD4/CD8 ([3]; Bestim Before): 2.09 ± 0.30
- CD8 (%) ([3]; Bestim Before): 15 ± 2%
- CD16 (%) ([3]; Bestim Before): 6.2 ± 1.1%
- CD72 (%) ([3]; Bestim Before): 4.1 ± 0.6%
- Chemilumin luminol (induced) ([3]; Bestim Before): 2943 ± 307
- Chemilumin luminol (spontaneous) ([3]; Bestim Before): 1008 ± 90
- IL-1 production LPS induced ([3]; Bestim Before): 1014 ± 157
- IL-1 production spontaneous ([3]; Bestim Before): 481 ± 166
- IgA ([3]; Bestim Before): 2.4 ± 0.4 g/L
- IgG ([3]; Bestim Before): 10.6 ± 1.5 g/L
- IgM ([3]; Bestim Before): 1.2 ± 0.2 g/L
- NBT test induced ([3]; Bestim Before): 111 ± 15
- NBT test spontaneous ([3]; Bestim Before): 79 ± 12
- TNF production spontaneous ([3]; Bestim Before): 134 ± 55
- TNF prpoduction LPS induced ([3]; Bestim Before): 370 ± 64
- Alanine aminotransferase ([3]; Bestim After): 18 ± 3 IU/L
- Albumin ([3]; Bestim After): 40 ± 2 g/L
- Asparagine aminotransferase ([3]; Bestim After): 17 ± 3 IU/L
- Band neutrophils (%) ([3]; Bestim After): 7 ± 1.6%
- Bilirubin ([3]; Bestim After): 7 ± 1 μM/L
- Creatinin ([3]; Bestim After): 98 ± 4 μM/L
- Hemoglobin ([3]; Bestim After): 101 ± 4 g/L
- Mature neutrophils (%) ([3]; Bestim After): 70 ± 1%
- Monocytes (%) ([3]; Bestim After): 3.6 ± 0.7%
- Plasma protein ([3]; Bestim After): 73 ± 3 g/L
- Urea ([3]; Bestim After): 4.0 ± 0.4 mM/L
- Alanine aminotransferase ([3]; Bestim Before): 29 ± 7 IU/L
- Albumin ([3]; Bestim Before): 38 ± 2 g/L
- Asparagine aminotransferase ([3]; Bestim Before): 30 ± 9 IU/L
- Band neutrophils (%) ([3]; Bestim Before): 12 ± 2%
- Bilirubin ([3]; Bestim Before): 10 ± 1 μM/L
- Creatinin ([3]; Bestim Before): 117 ± 7 μM/L
- Hemoglobin ([3]; Bestim Before): 98 ± 4 g/L
- Mature neutrophils (%) ([3]; Bestim Before): 76 ± 2%
- Monocytes (%) ([3]; Bestim Before): 3.2 ± 0.5%
- Plasma protein ([3]; Bestim Before): 70 ± 3 g/L
- Urea ([3]; Bestim Before): 5.5 ± 0.3 mM/L
- Lymphocytes ([4]; After Bestim Therapy): 1800 per mm^3
- T-Lymphocytes (CD3) ([4]; After Bestim Therapy): 60%
- T-helper lymphocytes (CD4) ([4]; After Bestim Therapy): 35%
- White blood cells ([4]; After Bestim Therapy (5 daily i.m. 0.1 mg)): 6.9 × 10^3 per mm^3
- Lymphocytes ([4]; Before Therapy): 200 per mm^3
- T-Lymphocytes (CD3) ([4]; Before Therapy): 23%
- T-helper lymphocytes (CD4) ([4]; Before Therapy): 14%
- White blood cells ([4]; Before Therapy): 5.5 × 10^3 per mm^3
